For eight compounds, IC50 results are on record in patent publication US7713994B2 (Wyeth LLC, priority 2005, dated 2010).

Assay [1] concerns the target T1, cyclin D1/cdk 4 enzyme (Homo sapiens, UniProt P11802).
T1 construct: made in house; host or cells: Sf9 insect cells, recombinant baculovirus
Description: CDK4 ELISA kinase assay (phospho-Rb ser 795 detection). Type of assay: biochemical. Particulars: In Vitro Enzyme Assay, cyclin D1/cdk 4, read-out: CDK4 IC50. The essentials:
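Sf9-derived cyclin/CDK, 200 μM ATP, immobilized GST-Rb; 30° C/1 h. Detection: phospho-Ser795 Ab, HRP, TMB, OD450.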

In assay [2] the test system is BT474. Description: Cytotoxicity assay (SRB), BT474. Type of assay: cell-based. Particulars: Homo sapiens, BT-474, 144 h, BT474 cells, 6 days, SRB; read-out: In Vitro Cellular Activity IC50 BT474. The procedure, abridged:
(§1)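 Cells grown in RPMI 1640 with 5% FBS were treated with compound for three days (HCT-116, LoVo, MCF-7) or six days (BT474). Viable cell mass was quantified by sulforhodamine B staining of TCA-fixed protein and read at 540 nm.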

In assay [3] the test system is HCT-116. Description: Cytotoxicity assay (SRB), HCT-116. The class given is cell-based. Particulars: Homo sapiens, HCT-116, 72 h, HCT116 cells, 3 days, SRB; read-out: In Vitro Cellular Activity IC50 HCT116. The essentials:
as §1

The subject of assay [4] is LoVo. Description: Cytotoxicity assay (SRB), LoVo. The class given is cell-based. Particulars: Homo sapiens, LoVo, 72 h, LoVo cells, 3 days, SRB; read-out: In Vitro Cellular Activity IC50 LOVO. The essentials: as §1
The subject of assay [5] is MCF-7. The assay is described as follows: Cytotoxicity assay (SRB), MCF-7. Type of assay: cell-based. Particulars: Homo sapiens, MCF7, 72 h, MCF-7 cells, 3 days, SRB; read-out: In Vitro Cellular Activity IC50 MCF-7. The essentials:
as §1

T1 sequence (P11802 whole entry, species assumed): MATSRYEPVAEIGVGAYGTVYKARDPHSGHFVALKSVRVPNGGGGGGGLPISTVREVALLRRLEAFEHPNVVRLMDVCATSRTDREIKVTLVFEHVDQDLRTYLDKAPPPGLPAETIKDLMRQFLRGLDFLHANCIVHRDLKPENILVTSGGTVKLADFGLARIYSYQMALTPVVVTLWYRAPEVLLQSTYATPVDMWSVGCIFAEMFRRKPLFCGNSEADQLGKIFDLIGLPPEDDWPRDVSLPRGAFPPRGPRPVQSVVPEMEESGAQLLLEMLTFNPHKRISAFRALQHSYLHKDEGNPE
T1 sequence (P24385 whole entry partner, species assumed): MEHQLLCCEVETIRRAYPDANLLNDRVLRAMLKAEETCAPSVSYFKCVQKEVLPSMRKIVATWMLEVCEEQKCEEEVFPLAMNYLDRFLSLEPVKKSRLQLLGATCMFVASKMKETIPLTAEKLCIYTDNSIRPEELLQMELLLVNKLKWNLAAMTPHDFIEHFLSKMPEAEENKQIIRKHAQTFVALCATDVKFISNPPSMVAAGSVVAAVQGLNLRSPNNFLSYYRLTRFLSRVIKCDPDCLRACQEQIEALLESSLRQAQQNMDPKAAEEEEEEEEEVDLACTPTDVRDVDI

Consider `CN1CCN(c2ccc(NC=C3C(=O)NC(=O)c4ccc(C=Cc5ccc(N)cc5)cc43)cc2)CC1` [Example 725, 6-[2-(4-Amino-phenyl)-vinyl]-4-{[4-(4-methyl-piperazin-1-yl)-phenylamino]-methylene}-4H-isoquinoline-1,3-dione], for which the half-maximal inhibitory concentration (IC50) was 2.9 µM in assay [1]; 19.5 µM in assay [2]; 8 µM in assay [3]; 29.9 µM in assay [4]; 29.3 µM in assay [5].
On to `CN1CCN(c2ccc(NC=C3C(=O)NC(=O)c4ccc(C=Cc5ccc(C(F)(F)F)cc5)cc43)cc2)CC1` [Example 729, 4-{[4-(4-Methyl-piperazin-1-yl)-phenylamino]-methylene}-6-[2-(4-trifluoromethyl-phenyl)-vinyl]-4H-isoquinoline-1,3-dione], for which the half-maximal inhibitory concentration (IC50) in assay [1] was 10.9 µM; in assay [2], 4.7 µM; in assay [3], 1.4 µM; in assay [4], 17.9 µM; in assay [5], 2.1 µM.
In the case of `CN1CCN(c2ccc(NC=C3C(=O)NC(=O)c4ccc(C=CC(O)CO)cc43)cc2)CC1` (stereo not shown) [Example 730, 6-(3,4-Dihydroxy-but-1-enyl)-4-{[4-(4-methyl-piperazin-1-yl)-phenylamino]-methylene}-4H-isoquinoline-1,3-dione], the IC50 was 2.5 µM in assay [1]; 20.2 µM in assay [2]; 17.1 µM in assay [3]; 28.8 µM in assay [4]; 40.9 µM in assay [5].
For the compound `COc1cccc(-c2ccc3c(c2)C(=CNCc2ccc(S(N)(=O)=O)cc2)C(=O)NC3=O)c1` [Example 737, 4-({[6-(3-Methoxy-phenyl)-1,3-dioxo-2,3-dihydro-1H-isoquinolin-4-ylidenemethyl]-amino}-methyl)-benzenesulfonamide], the half-inhibitory concentration (IC50) was 6 µM in assay [1]; more than 50 µM in assay [2]; 17.7 µM in assay [3]; 15.3 µM in assay [4]; 12.7 µM in assay [5].
Turning to `NS(=O)(=O)c1ccc(CNC=C2C(=O)NC(=O)c3ccc(-c4cccc(Cl)c4)cc32)cc1` [Example 750, 4-({[6-(3-Chloro-phenyl)-1,3-dioxo-2,3-dihydro-1H-isoquinolin-4-ylidenemethyl]-amino}-methyl)-benzenesulfonamide], the concentration for half-maximal inhibition (IC50) in assay [1] was 2.5 µM; in assay [2], more than 50 µM; in assay [3], 29.1 µM; in assay [4] it was 27.8 µM; in assay [5], 39 µM.
Regarding `NS(=O)(=O)c1ccc(CNC=C2C(=O)NC(=O)c3ccc(-c4ccccc4Cl)cc32)cc1` [Example 751, 4-({[6-(2-Chloro-phenyl)-1,3-dioxo-2,3-dihydro-1H-isoquinolin-4-ylidenemethyl]-amino}-methyl)-benzenesulfonamide], the IC50 was found to be 2.5 µM in assay [1]; 7.1 µM in assay [2]; 6.3 µM in assay [3]; 10.1 µM in assay [4]; 8.2 µM in assay [5].
For `Cc1ccc(-c2ccc3c(c2)C(=CNCc2ccc(S(N)(=O)=O)cc2)C(=O)NC3=O)cc1` [Example 752, 4-{[(1,3-Dioxo-6-p-tolyl-2,3-dihydro-1H-isoquinolin-4-ylidenemethyl)-amino]-methyl}-benzenesulfonamide], in that order: 1.3 µM, 33.3 µM, 14.8 µM, 33.4 µM and 18.5 µM.
`Cc1cccc(-c2ccc3c(c2)C(=CNCc2ccc(S(N)(=O)=O)cc2)C(=O)NC3=O)c1` [Example 753, 4-{[(1,3-Dioxo-6-m-tolyl-2,3-dihydro-1H-isoquinolin-4-ylidenemethyl)-amino]-methyl}-benzenesulfonamide]: the IC50 in assay [1] was 3.4 µM; in assay [2], 28.9 µM; in assay [3], 14.4 µM; in assay [4], 23.4 µM; in assay [5], 13.3 µM.
